Among the data in patent publication US10662182B2, “Microbiocidal thiazole derivatives” (SYNGENTA PARTICIPATIONS AG, priority 2016, dated 2020) are melting point, pest or weed control and inhibition of growth values, retold here.

The test system of series [1] is Magnaporthe risea (Pyricularia oryzae). The series is described as follows: whole plant or invertebrate. Type of series: in vivo. The note with it: foliar, read-out: disease control.
Series [2] concerns Blumeria graminis f. Sp. Tritici (Erysiphe graminis f. Sp. Tritici). The series is described as follows: Blumeria graminis f. sp. tritici / wheat / leaf disc preventative (powdery mildew on wheat). Type of series: in vivo. The note with it: foliar, 200 ppm in the formulation, wheat leaf segments cv. Kanzler, compared to untreated checks, read-out: disease control. An excerpt:
Blumeria graminis f. Sp. Tritici (Erysiphe graminis f. Sp. Tritici)/Wheat/Leaf Disc Preventative (Powdery Mildew on Wheat) Wheat leaf segments cv. Kanzler are placed on agar in a multiwell plate (24-well format) and sprayed with the test compound formulated with DMSO and Tween20 and diluted in water. The leaf disks are inoculated by shaking powdery mildew infected plants above the test plates 1 day after application.

Series [3] relates to Monocraphella nivalis (Microdochium nivale). Nature of the series: Monographella nivalis / liquid culture (foot rot cereals). Type of series: cell-based. The note with it: 200 ppm in the formulation, inhibition of growth determined photometrically, compared to untreated checks, read-out: disease control. The protocol:
Monocraphella nivalis (Microdochium nivale)/Liquid Culture (Foot Rot Cereals) Conidia of the fungus from cryogenic storage are directly mixed into nutrient broth (PDB potato dextrose broth). After placing a (DMSO) solution of test compound into a microtiter plate (96-well format), the nutrient broth containing the fungal spores is added. The test plates are incubated at 24° C. and the inhibition of growth is determined photometrically 4-5 days after application.

For series [4], the system named is Mycosphaerella raminicola (Septoria tritici). Nature of the series: Mycosphaerella graminicola / liquid culture (Septoria blotch). Type of series: cell-based. The note with it: 200 ppm in the formulation, inhibition of growth determined photometrically, compared to untreated checks, read-out: disease control. The procedure: Mycosphaerella raminicola (Septoria tritici)/Liquid Culture (Septoria blotch) Conidia of the fungus from cryogenic storage are directly mixed into nutrient broth (PDB potato dextrose broth). After placing a (DMSO) solution of test compound into a microtiter plate (96-well format), the nutrient broth containing the fungal spores is added. The test plates are incubated at 24° C. and the inhibition of growth is determined photometrically 4 to 5 days after application.

Series [5] concerns Glomerella lacenarium (Colletotrichum lacenarium). Nature of the series: Glomerella lagenarium / liquid culture (anthracnose). Type of series: cell-based. The note with it: 200 ppm in the formulation, inhibition of growth measured photometrically, compared to untreated checks, read-out: disease control. The protocol: Glomerella lacenarium (Colletotrichum lacenarium)/Liquid Culture (Anthracnose) Conidia of the fungus from cryogenic storage are directly mixed into nutrient broth (PDB potato dextrose broth). After placing a (DMSO) solution of test compound into a microtiter plate (96-well format), the nutrient broth containing the fungal spores is added. The test plates are incubated at 24° C. and the inhibition of growth is measured photometrically 3 to 4 days after application.

For series [6], the system named is Puccinia recondita f. Sp. Tritici. Nature of the series: Puccinia recondita f. sp. tritici / wheat / leaf disc preventative (brown rust). The note with it: foliar, 200 ppm in the formulation, wheat leaf segments cv. Kanzler, compared to untreated checks, read-out: disease control. The series is classed as in vivo.
The test system of series [7] is Mycosphaerella arachidis (Cercospora arachidicola). The series is described as follows: Mycosphaerella arachidis / liquid culture (early leaf spot). The note with it: 200 ppm in the formulation, inhibition of growth determined photometrically, compared to untreated checks, read-out: disease control. The series is classed as cell-based. The protocol: Mycosphaerella arachidis (Cercospora arachidicola)/Liquid Culture (Early Leaf Spot) Conidia of the fungus from cryogenic storage are directly mixed into nutrient broth (PDB potato dextrose broth). After placing a (DMSO) solution of test compound into a microtiter plate (96-well format), the nutrient broth containing the fungal spores is added. The test plates are incubated at 24° C. and the inhibition of growth is determined photometrically 4-5 days after application.

For another series, the system named is Pyrenophora teres. Nature of the series: Pyrenophora teres / barley / leaf disc preventative (net blotch). Type of series: in vivo. The note with it: foliar, 200 ppm of the formulation, barley leaf segments cv. Hasso, compared to untreated checks, read-out: disease control. The protocol:
Pyrenophora teres/Barley/Leaf Disc Preventative (Net Blotch) Barley leaf segments cv. Hasso are placed on agar in a multiwell plate (24-well format) and sprayed with the test compound formulated with DMSO and Tween20 and diluted in water. The leaf segments are inoculated with a spore suspension of the fungus 2 days after application. The inoculated leaf segments are incubated at 20° C. and 65% rh under a light regime of 12 h light/12 h darkness in a climate cabinet and the activity of a compound is assessed as disease control compared to untreated when an appropriate level of disease damage appears in untreated check leaf segments (5 to 7 days after application).

In series [8] the test system is Botrvotinia fuckeliana (Botrvtis cinerea). The series is described as follows: Botryotinia fuckeliana / liquid culture (gray mould). The note with it: Botrytis cinerea, 200 ppm in the formulation, inhibition of growth determined photometrically, compared to untreated checks, read-out: disease control. The series is classed as cell-based. The procedure: Botrvotinia fuckeliana (Botrvtis cinerea)/Liquid Culture (Gray Mould) Conidia of the fungus from cryogenic storage are directly mixed into nutrient broth (Vogels broth). After placing a (DMSO) solution of test compound into a microtiter plate (96-well format), the nutrient broth containing the fungal spores is added. The test plates are incubated at 24° C. and the inhibition of growth is determined photometrically 3-4 days after application.

The term melting point denotes the temperature, or range, at which the solid turns liquid.

On to `Cc1sc(Nc2cc(F)cc(F)c2)nc1C(=O)NC1CC12CC2` (stereo not drawn) [I.bb.3, 2-(3,5-difluoroanilino)-5-methyl-N-spiro[2.2]pentan-2-yl-thiazole-4-carboxamide], for which the melting point was in the range of 145 to 175 °C. For the same compound, the pest or weed control at 200 ppm in [1] is no less than 80%. The pest or weed control at 200 ppm in series [2] was no less than 80%. The inhibition of growth at 200 ppm in series [3] is no less than 80%. Further, in series [4], the inhibition of growth at 200 ppm was no less than 80%. For the same compound, the inhibition of growth at 200 ppm in [5] was no less than 80%. Also, the pest or weed control at 200 ppm in series [6] was no less than 80%. Besides, in [7], the inhibition of growth at 200 ppm was no less than 80%.

`Cc1sc(Nc2cc(F)nc(F)c2)nc1C(=O)NC1CC12CC2` (stereo not drawn) [I.bb.43, 2-[(2,6-difluoro-4-pyridyl)amino]-5-methyl-N-spiro[2.2]pentan-2-yl-thiazole-4-carboxamide] came in with a melting point of 129 to 158 °C. Besides, the pest or weed control at 200 µg/mL in the series on Pyrenophora teres was no less than 80%. Besides, the pest or weed control at 200 ppm in [1] is no less than 80%. Also, the pest or weed control at 200 ppm in series [2] was no less than 80%. In [3], the inhibition of growth at 200 ppm was no less than 80%. The inhibition of growth at 200 ppm in series [4] is no less than 80%. Further, in series [5], the inhibition of growth at 200 ppm is no less than 80%. In series [6], the pest or weed control at 200 ppm was no less than 80%. Further, the inhibition of growth at 200 ppm in series [7] was no less than 80%.

`Cc1sc(Nc2cc(F)nc(F)c2)nc1C(=O)NC1CCC12CCCC2` (stereo not drawn) [I.s.43, 2-[(2,6-difluoro-4-pyridyl)amino]-5-methyl-N-spiro[3.4]octan-3-yl-thiazole-4-carboxamide] had a melting point of 156 to 162 °C. In addition, in the series with Pyrenophora teres, the pest or weed control at 200 µg/mL was no less than 80%. The inhibition of growth at 200 ppm in series [8] was no less than 80%. Besides, in [1], the pest or weed control at 200 ppm was no less than 80%. Further, in series [2], the pest or weed control at 200 ppm was no less than 80%. Moreover, in series [3], the inhibition of growth at 200 ppm was no less than 80%. The inhibition of growth at 200 ppm in series [4] was no less than 80%. Also, in [5], the inhibition of growth at 200 ppm is no less than 80%. For the same compound, the pest or weed control at 200 ppm in series [6] was no less than 80%. In addition, in series [7], the inhibition of growth at 200 ppm was no less than 80%.
